Measurements published in patent US7250408B2, “Glucocorticoid receptor antagonists for prophylaxis and therapy of glucocorticoid-mediated hypogonadism, of sexual dysfunction and/or infertility” (Bayer Schering Pharma AG, priority 2002, dated 2007).

Columns and labels:
Progesterone Receptor = molecular target: T1, Progesterone Receptor (Homo sapiens, UniProt P06401); assay: Progesterone receptor binding, relative binding affinity (RBA); conditions: RBA relative to progesterone = 100
T1 sequence (P06401 1-933): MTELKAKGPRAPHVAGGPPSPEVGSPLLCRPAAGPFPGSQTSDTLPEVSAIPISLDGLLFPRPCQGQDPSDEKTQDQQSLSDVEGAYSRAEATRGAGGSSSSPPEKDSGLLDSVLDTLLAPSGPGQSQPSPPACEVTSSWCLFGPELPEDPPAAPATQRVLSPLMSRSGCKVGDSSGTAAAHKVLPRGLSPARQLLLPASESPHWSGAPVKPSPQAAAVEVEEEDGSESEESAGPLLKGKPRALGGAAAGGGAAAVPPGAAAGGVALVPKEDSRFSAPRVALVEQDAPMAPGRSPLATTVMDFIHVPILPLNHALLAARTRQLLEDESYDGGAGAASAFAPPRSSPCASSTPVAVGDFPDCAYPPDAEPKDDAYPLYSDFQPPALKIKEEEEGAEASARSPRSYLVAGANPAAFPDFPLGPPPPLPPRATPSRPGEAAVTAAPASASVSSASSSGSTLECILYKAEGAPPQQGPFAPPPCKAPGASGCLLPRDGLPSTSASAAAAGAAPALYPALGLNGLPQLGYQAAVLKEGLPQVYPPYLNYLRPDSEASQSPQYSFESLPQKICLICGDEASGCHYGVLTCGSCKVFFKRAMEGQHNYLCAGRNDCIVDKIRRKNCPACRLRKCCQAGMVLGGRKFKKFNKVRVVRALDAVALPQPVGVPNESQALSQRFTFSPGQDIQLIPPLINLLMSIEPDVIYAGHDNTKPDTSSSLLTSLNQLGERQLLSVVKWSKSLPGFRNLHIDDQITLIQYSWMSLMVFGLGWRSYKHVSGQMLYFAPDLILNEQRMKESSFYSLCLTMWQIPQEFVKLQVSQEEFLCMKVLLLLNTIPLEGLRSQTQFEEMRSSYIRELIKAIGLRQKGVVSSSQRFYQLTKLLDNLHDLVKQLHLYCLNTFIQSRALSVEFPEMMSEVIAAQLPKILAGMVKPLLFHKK

Glucocorticoid Receptor = molecular target: T2, Glucocorticoid Receptor (Homo sapiens, UniProt P04150); assay: Glucocorticoid receptor binding, relative binding affinity (RBA); conditions: RBA relative to dexamethasone = 100
T2 sequence (P04150 1-777): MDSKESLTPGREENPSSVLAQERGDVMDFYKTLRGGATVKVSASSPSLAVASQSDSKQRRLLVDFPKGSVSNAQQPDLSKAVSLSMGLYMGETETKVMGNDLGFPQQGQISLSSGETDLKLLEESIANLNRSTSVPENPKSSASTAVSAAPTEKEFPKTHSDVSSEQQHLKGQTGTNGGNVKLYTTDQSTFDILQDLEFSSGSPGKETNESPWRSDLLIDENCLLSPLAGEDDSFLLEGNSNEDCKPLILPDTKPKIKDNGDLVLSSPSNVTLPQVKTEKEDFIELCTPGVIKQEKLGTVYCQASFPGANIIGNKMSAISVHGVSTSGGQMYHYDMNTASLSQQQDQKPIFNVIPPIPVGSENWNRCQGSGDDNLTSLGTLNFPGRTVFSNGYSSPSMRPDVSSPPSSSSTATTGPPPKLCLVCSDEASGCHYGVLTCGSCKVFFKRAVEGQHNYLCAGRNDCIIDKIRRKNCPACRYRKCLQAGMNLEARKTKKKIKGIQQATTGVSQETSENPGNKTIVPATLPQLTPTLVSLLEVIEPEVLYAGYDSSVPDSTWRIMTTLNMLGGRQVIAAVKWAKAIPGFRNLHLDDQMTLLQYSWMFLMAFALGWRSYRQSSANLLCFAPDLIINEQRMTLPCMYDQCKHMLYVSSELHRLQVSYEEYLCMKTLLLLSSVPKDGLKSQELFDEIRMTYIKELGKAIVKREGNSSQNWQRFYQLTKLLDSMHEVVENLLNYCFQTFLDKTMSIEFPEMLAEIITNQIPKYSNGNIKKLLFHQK

COc1cccc(C2CC3(C)C(CCC3(O)C#CC(C)(C)C)C3CCC4=CC(=O)CCC4=C23)c1 (stereo not drawn) [Example 1, 21-tert.Butyl-17-hydroxy-11β-(3-methoxyphenyl)-19-nor-17α-pregna-4,9-dien-20-yn-3-one] was tested, and the “Relative Binding Affinity to Progesterone Receptor, %” value (Progesterone Receptor) was 3.4% and the “Relative Binding Affinity to Glucocorticoid Receptor, %” value (Glucocorticoid Receptor) was 85%.

COc1cccc(C2CC3(C)C(CCC3(O)C#Cc3cccc(C=O)c3)C3CCC4=CC(=O)CCC4=C23)c1 (stereo not drawn) [Example 3, 3-{17-Hydroxy-11β-[3-(methoxy)phenyl]-3-keto-19-nor-17α-pregna-4,9-dien-20-yn-21-yl}benzaldehyde] was tested, and the “Relative Binding Affinity to Progesterone Receptor, %” value (Progesterone Receptor) was 4.3% and the “Relative Binding Affinity to Glucocorticoid Receptor, %” value (Glucocorticoid Receptor) was 159%.

With COc1cccc(C2CC3(C)C(CCC3(O)C#Cc3ccc(OC(C)=O)cc3)C3CCC4=CC(=O)CCC4=C23)c1 (centres unmarked) [Example 4] the “Relative Binding Affinity to Progesterone Receptor, %” value (Progesterone Receptor) was 2.8% and the “Relative Binding Affinity to Glucocorticoid Receptor, %” value (Glucocorticoid Receptor) was 98%.

In the case of COc1cccc(C2CC3(C)C(CCC3(O)C#Cc3ccc(-n4cccc4)cc3)C3CCC4=CC(=O)CCC4=C23)c1 (centres unmarked) [Example 5], the “Relative Binding Affinity to Progesterone Receptor, %” value (Progesterone Receptor) is reported as 3.4% and the “Relative Binding Affinity to Glucocorticoid Receptor, %” value (Glucocorticoid Receptor) is reported as 57%.

In the case of COc1cccc(C2CC3(C)C(CCC3(O)C#Cc3ccc(O)cc3)C3CCC4=CC(=O)CCC4=C23)c1 (centres unmarked) [Example 6], the “Relative Binding Affinity to Progesterone Receptor, %” value (Progesterone Receptor) is reported as 2.9% and the “Relative Binding Affinity to Glucocorticoid Receptor, %” value (Glucocorticoid Receptor) is reported as 109%.

In the case of COc1cccc(C2CC3(C)C(CCC3(O)C#Cc3ccc(S(C)(=O)=O)cc3)C3CCC4=CC(=O)CCC4=C23)c1 (stereo not drawn) [Example 7, 17-Hydroxy-21-(4-mesylphenyl)-11,6-(3-methoxyphenyl)-19-nor-17α-pregna-4,9-dien-20-yn-3-one], the “Relative Binding Affinity to Progesterone Receptor, %” value (Progesterone Receptor) is reported as 1.0% and the “Relative Binding Affinity to Glucocorticoid Receptor, %” value (Glucocorticoid Receptor) is reported as 155%.

In the case of COc1cccc(C2CC3(C)C(CCC3(O)C#Cc3cccc(C=NO)c3)C3CCC4=CC(=O)CCC4=C23)c1 (stereo not drawn) [Example 10, 3-E-[17-Hydroxy-11β-[3-(methoxy)phenyl)-19-nor-3-keto-17α-pregna-4,9-dien-20-yn-21-yl]benzaldoxime], the “Relative Binding Affinity to Progesterone Receptor, %” value (Progesterone Receptor) is reported as 10.4% and the “Relative Binding Affinity to Glucocorticoid Receptor, %” value (Glucocorticoid Receptor) is reported as 148%.
